Several values for one entry are separate records, joined by “and”; a condition that tells them apart may be missing. Equal entries are not always repeated. Inconclusive results and toxic doses are left out. Cut-off read from the data, not from the text of the source: active = T/C of 150% or more; inactive = T/C below 125%.
System: L1210 leukemia ip in BDF1 mice, survival T/C
Test: NCI In Vivo Anticancer Drug Screen. Data for tumor model L1210 Leukemia (intraperitoneal) in B6D2F1 (BDF1) mice
Details: endpoint: mean survival time, higher = longer survival
How it was run: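 Tumor cells were implanted, animals were treated, and survival was followed. The result divides the treated measurement by the vehicle-control measurement.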

[1] = dose: 100.0 mg/kg/injection, schedule: Q01DX001 (ip), vehicle: saline
[2] = dose: 200.0 mg/kg/injection, schedule: Q01DX001 (ip), vehicle: saline
[3] = dose: 400.0 mg/kg/injection, schedule: Q01DX001 (ip), vehicle: saline
[4] = dose: 50.0 mg/kg/injection, schedule: Q01DX009 (ip), vehicle: saline with Tween-80
[5] = dose: 100.0 mg/kg/injection, schedule: Q01DX009 (ip), vehicle: saline with Tween-80
[6] = dose: 200.0 mg/kg/injection, schedule: Q01DX009 (ip), vehicle: saline with Tween-80
[7] = dose: 100.0 mg/kg/injection, schedule: Q01DX009 (ip), vehicle: saline
[8] = dose: 100.0 mg/kg/injection, schedule: Q04DX003 (ip), vehicle: saline
[9] = dose: 200.0 mg/kg/injection, schedule: Q01DX009 (ip), vehicle: saline
[10] = dose: 200.0 mg/kg/injection, schedule: Q04DX003 (ip), vehicle: saline
[11] = dose: 400.0 mg/kg/injection, schedule: Q01DX009 (ip), vehicle: saline
[12] = dose: 400.0 mg/kg/injection, schedule: Q04DX003 (ip), vehicle: saline
[13] = dose: 200.0 mg/kg/injection, schedule: Q04DX003 (ip), vehicle: saline with Tween-80
[14] = dose: 400.0 mg/kg/injection, schedule: Q04DX003 (ip), vehicle: saline with Tween-80
[15] = dose: 100.0 mg/kg/injection, schedule: Q04DX003 (ip), vehicle: Klucel (hydroxypropylcellulose) (HPC)
[16] = dose: 200.0 mg/kg/injection, schedule: Q04DX003 (ip), vehicle: Klucel (hydroxypropylcellulose) (HPC)
[17] = dose: 400.0 mg/kg/injection, schedule: Q04DX003 (ip), vehicle: Klucel (hydroxypropylcellulose) (HPC)
[18] = dose: 100.0 mg/kg/injection, schedule: Q04DX003 (ip), vehicle: saline with Tween-80

Measured: T/C

CCOC(=O)C(CC)(OC(C)=O)C(=O)C(O)C1c2nc3ccccc3cc2CN1C(=O)CCOCc1ccccc1 (stereo not given)
inactive: dose: 10.0 mg/kg/injection, schedule: Q07DX002 (ip), vehicle: alcohol 99 % of control | dose: 20.0 mg/kg/injection, schedule: Q07DX002 (ip), vehicle: alcohol 101 % of control | dose: 40.0 mg/kg/injection, schedule: Q07DX002 (ip), vehicle: alcohol 106 % of control | dose: 80.0 mg/kg/injection, schedule: Q07DX002 (ip), vehicle: alcohol 94 % of control

O=C(c1ccccc1)C(C(=O)c1ccccc1)C(c1ccccc1)C(C(=O)c1ccccc1)C(c1ccccc1)c1ccccc1 (stereo not given)
inactive: [1] 87 % of control | [2] 89 % of control | [3] 92 % of control and 91 % of control

CC(C)=C(CO)CCC(C)C
inactive: [4] 100 % of control | [5] 94 % of control | [6] 89 % of control

CCOc1ccc(=O)[nH]n1
inactive: [7] 93 % of control | [8] 105 % of control | [9] 93 % of control | [10] 101 % of control | [11] 95 % of control | [12] 115 % of control

CCOC(=O)C1(Cc2ccccc2)CCCC1=O (stereo not given)
inactive: dose: 100.0 mg/kg/injection, schedule: Q01DX001 (ip), vehicle: carboxymethylcellulose (CMC) 107 % of control | dose: 200.0 mg/kg/injection, schedule: Q01DX001 (ip), vehicle: carboxymethylcellulose (CMC) 96 % of control | dose: 400.0 mg/kg/injection, schedule: Q01DX001 (ip), vehicle: carboxymethylcellulose (CMC) 96 % of control

O=C(NC1CCCCC1)c1ccc2ccccc2c1O
inactive: [13] 98 % of control | [14] 95 % of control

O=C(C[N+]12CC=C(CO)C1C(O)CC2)c1ccc(Br)cc1 (stereo not given)
inactive: [1] 104 % of control | [2] 101 % of control

NC(=O)CCC(C(=O)O)N1C(=O)C2C3CCC(C3)C2C1=O (stereo not given)
inactive: [8] 98 % of control | [10] 95 % of control | [12] 95 % of control

O=P(NCCO)(OCC(Br)CBr)OCC(Br)CBr (stereo not given)
inactive: [4] 94 % of control | [5] 102 % of control | [6] 98 % of control

CCOCCN1CCN(CCCN2c3ccccc3Sc3ccc(C(F)(F)F)cc32)CC1
inactive: dose: 0.19 mg/kg/injection, schedule: Q01DX009 (ip), vehicle: water 95 % of control | dose: 0.39 mg/kg/injection, schedule: Q01DX009 (ip), vehicle: water 98 % of control | dose: 0.78 mg/kg/injection, schedule: Q01DX009 (ip), vehicle: water 111 % of control | dose: 1.56 mg/kg/injection, schedule: Q01DX009 (ip), vehicle: water 110 % of control | dose: 22.0 mg/kg/injection, schedule: Q04DX003 (ip), vehicle: other 122 % of control | dose: 100.0 mg/kg/injection, schedule: Q04DX003 (ip), vehicle: water 98 % of control

Cc1nc2nc[nH]c(=O)c2nc1C
inactive: dose: 16.0 mg/kg/injection, schedule: Q01DX Z (ip), vehicle: methylcellulose (MC) 92 % of control | dose: 31.0 mg/kg/injection, schedule: Q01DX Z (ip), vehicle: methylcellulose (MC) 89 % of control | dose: 62.0 mg/kg/injection, schedule: Q01DX Z (ip), vehicle: methylcellulose (MC) 103 % of control | dose: 125.0 mg/kg/injection, schedule: Q01DX Z (ip), vehicle: methylcellulose (MC) 93 % of control and 97 % of control | dose: 250.0 mg/kg/injection, schedule: Q01DX Z (ip), vehicle: methylcellulose (MC) 107 % of control

Cc1ccn2c(=O)cc(O)nc2c1
inactive: dose: 50.0 mg/kg/injection, schedule: Q01DX001 (ip), vehicle: saline 101 % of control | [1] 98 % of control | [2] 92 % of control | [3] 98 % of control

O=C(Oc1ccccc1[N+](=O)[O-])c1ccccc1
inactive: dose: 100.0 mg/kg/injection, schedule: Q04DX003 (ip), vehicle: other 98 % of control | dose: 200.0 mg/kg/injection, schedule: Q04DX003 (ip), vehicle: other 118 % of control | dose: 400.0 mg/kg/injection, schedule: Q04DX003 (ip), vehicle: other 93 % of control

O=C(O)C1(NC2CCCCC2)CCCCC1
inactive: dose: 5.0 mg/kg/injection, schedule: Q01DX Z (ip), vehicle: methylcellulose (MC) 104 % of control | dose: 10.0 mg/kg/injection, schedule: Q01DX Z (ip), vehicle: methylcellulose (MC) 114 % of control | dose: 20.0 mg/kg/injection, schedule: Q01DX Z (ip), vehicle: methylcellulose (MC) 99 % of control | dose: 40.0 mg/kg/injection, schedule: Q01DX Z (ip), vehicle: methylcellulose (MC) 100 % of control | dose: 80.0 mg/kg/injection, schedule: Q01DX Z (ip), vehicle: methylcellulose (MC) 99 % of control

c1ccc2c(C3OCC4(CCC4)CO3)cccc2c1
inactive: dose: 100.0 mg/kg/injection, schedule: Q01DX009 (ip), vehicle: Klucel (hydroxypropylcellulose) (HPC) 91 % of control | [15] 91 % of control | dose: 200.0 mg/kg/injection, schedule: Q01DX009 (ip), vehicle: Klucel (hydroxypropylcellulose) (HPC) 96 % of control | [16] 100 % of control | dose: 400.0 mg/kg/injection, schedule: Q01DX009 (ip), vehicle: Klucel (hydroxypropylcellulose) (HPC) 97 % of control | [17] 94 % of control

COc1ccccc1CC=O
inactive: [1] 102 % of control | [2] 103 % of control | [3] 97 % of control

c1ccc(P(=NC2CCCCC2)(c2ccccc2)c2ccccc2)cc1
inactive: dose: 50.0 mg/kg/injection, schedule: Q04DX003 (ip), vehicle: acetone 96 % of control | dose: 100.0 mg/kg/injection, schedule: Q04DX003 (ip), vehicle: acetone 94 % of control

O=C1OCc2cccc3cccc1c23
inactive: [18] 115 % of control | [13] 104 % of control

CCOC(=O)c1ccc(NCc2cccc([N+](=O)[O-])c2)cc1
inactive: dose: 100.0 mg/kg/injection, schedule: Q01DX001 (ip), vehicle: saline with Tween-80 103 % of control | dose: 200.0 mg/kg/injection, schedule: Q01DX001 (ip), vehicle: saline with Tween-80 90 % of control | dose: 400.0 mg/kg/injection, schedule: Q01DX001 (ip), vehicle: saline with Tween-80 88 % of control

Cc1ccc(Cl)c(I)c1
inactive: dose: 100.0 mg/kg/injection, schedule: Q04DX002 (ip), vehicle: saline 103 % of control | dose: 200.0 mg/kg/injection, schedule: Q04DX002 (ip), vehicle: saline 103 % of control | dose: 400.0 mg/kg/injection, schedule: Q04DX002 (ip), vehicle: saline 95 % of control

CCN(CC)CCCNC=O
inactive: [7] 94 % of control | [8] 111 % of control | [9] 94 % of control | [10] 102 % of control | [11] 94 % of control | [12] 108 % of control

COc1ccc(/C=N\NC(=O)c2ccncc2)cc1O
inactive: dose: 100.0 mg/kg/injection, schedule: Q04DX002 (ip), vehicle: Klucel (hydroxypropylcellulose) (HPC) 118 % of control | dose: 200.0 mg/kg/injection, schedule: Q04DX002 (ip), vehicle: Klucel (hydroxypropylcellulose) (HPC) 106 % of control | dose: 400.0 mg/kg/injection, schedule: Q04DX002 (ip), vehicle: Klucel (hydroxypropylcellulose) (HPC) 106 % of control

Cc1coc(NS(=O)(=O)c2ccc(N=Nc3c(N)nc(N)nc3N)cc2)c1C
inactive: [1] 97 % of control | [2] 94 % of control | [3] 97 % of control

CCC[CH2][Sn]1([CH2]CCC)[S]CCOB(OCC[S][Sn]([CH2]CCC)([CH2]CCC)[S]CCOB2OCC[S][Sn]([CH2]CCC)([CH2]CCC)[S]CCO2)OCC[S]1
inactive: dose: 6.25 mg/kg/injection, schedule: Q01DX001 (ip), vehicle: Klucel (hydroxypropylcellulose) (HPC) 100 % of control | dose: 12.5 mg/kg/injection, schedule: Q01DX001 (ip), vehicle: Klucel (hydroxypropylcellulose) (HPC) 89 % of control | dose: 25.0 mg/kg/injection, schedule: Q01DX001 (ip), vehicle: Klucel (hydroxypropylcellulose) (HPC) 112 % of control

CCOC(=O)CCC(NC(=O)c1ccc(NC)c([N+](=O)[O-])c1)C(=O)OCC (stereo not given)
inactive: [15] 98 % of control | [16] 100 % of control | [17] 96 % of control

Cc1cccc(NC(=O)c2ccccc2Cl)c1C
inactive: [5] 103 % of control | [18] 95 % of control | [6] 95 % of control | [13] 93 % of control | dose: 400.0 mg/kg/injection, schedule: Q01DX009 (ip), vehicle: saline with Tween-80 104 % of control | [14] 91 % of control

From PubChem BioAssay AID248 (DTP/NCI, 2004)
